From patent publication US20210205336A1, “Storage-stable ready-to-use formulations of Tigecycline” (RK Pharma Solutions LLC, priority 2019, published 2021)
Values joined by “and” are separate entries in the source; they are usually repeats but may differ in a detail not shown here. Equal values may be shown once.

Assay: Storage stability (purity and impurity profile) of ready-to-use tigecycline formulations at refrigeration, 2-8° C.
Type: physicochemical
Set-up: Tricyclic Impurity / Max. Unk Imp. / Oxo Impurity / Epimer Impurity / Total Impurity: unit not given here
Procedure: As used herein, and unless otherwise specified, the term “storage-stable” refers to any tigecycline-containing composition or formulation having sufficient physical and chemical stability to allow storage at a convenient temperature, such as between about 0° C. and about 50° C., for a commercially reasonable period of time. The phrase “physical stability” refers to maintenance of colour or colourless state, dissolved oxygen level, head space oxygen level and particulate matter and the phrase “chemical stability” relates to formation of drug-related impurities in terms of total impurities, single maximum individual impurity, or maximum individual unknown impurity. For pharmaceutical products, stability is required for commercially relevant times after manufacturing, such as for about 6, 12, 18, 24, or 36 months, during which time a product is kept in its original packaging under specified storage conditions. Solution A and Solution B were then further nitrogen purged for another 30 minutes and closed tightly after nitrogen flushing and covered with black cover. Solution A and solution B were stored in refrigerator (2-8° C.) for 02 hours. 100 mg tigecycline was charged in solution B followed by the addition of solution B to solution A while the solution A was kept at ice bath (e.g., about 0° C.). Now, the total 100 ml solution in the infusion bag was nitrogen purged for another 15 minutes and sealed after nitrogen flushing and stored at refrigerator (2-8° C.). […] Calcium chloride 60 mg and sodium bisulfite 2.5 mg were dissolved in 3 ml 5% dextrose for injection. The volume was made up to 5 ml with 5% dextrose solution. The solution was then nitrogen purged until dissolved oxygen reached <0.1 mg/L. 50 mg tigecycline was transferred into an amber color vial and then the 5 ml of the above solution was poured in the vial under nitrogen. The headspace of the vial was flushed through with nitrogen and packed. The vials were stored at refrigeration condition. Calcium chloride 60 mg and sodium bisulfite 2.5 mg were dissolved in 3 ml 5% dextrose. pH was adjusted to 5.5-6.0 pH range using 0.1 M meglumine solution, as required. The volume was made up to 5 ml with 5% dextrose solution. The solution was then nitrogen purged until dissolved oxygen reached <0.1 mg/L. 50 mg tigecycline was transferred into an amber colour vial and then the 5 ml of the above solution was poured in the vial under nitrogen. The headspace of the vial was flushed through with nitrogen and packed. The vials were stored at refrigeration condition. Calcium chloride 60 mg and sodium bisulfite 2.5 mg were dissolved in 3 ml 5% dextrose. pH was adjusted to 4.5-5.0 pH range using 0.1 M meglumine solution, as required. The volume was made up to 5 ml with 5% dextrose solution. The solution was then nitrogen purged until dissolved oxygen reached <0.1 mg/L. 50 mg tigecycline was transferred into an amber colour vial and then the 5 ml of the above solution was poured in the vial under nitrogen. The headspace of the vial was flushed through with nitrogen and packed. The vials were stored at refrigeration condition. Calcium chloride 60 mg and sodium bisulfite 2.5 mg were dissolved in 3 ml 0.9% NaCl Solution. The volume was made up to 5 ml with 0.9% NaCl Solution. […]

[1] = API (tigecycline before formulation)

% Purity [1]: 99.22% and 99.2% and 99.18% | Epimer Impurity [1]: 0.5 and 0.48 and 0.49 | Max. Unk Imp. [1]: 0.05 and 0.04 | Oxo Impurity [1]: 0.02 | Tricyclic Impurity [1]: 0.03 and 0.04 and 0.05 | Purity (API (tigecycline before formulation), Tables 4A-9A): 99.3 | Rel. Comp. B (API (tigecycline before formulation), in % (unit assumed)): 0.01 and 0.02 | Total Impurity (API column, Day 1 (tigecycline before formulation)): 0.82
SMILES: CN(C)c1cc(NC(=O)CNC(C)(C)C)c(O)c2c1C[C@H]1C[C@H]3[C@H](N(C)C)C(=O)/C(=C(\N)O)C(=O)[C@@]3(O)C(=O)C1=C2O [API, (4S,4aS,5aR,12aS)-9-[2-(tert-butylamino)acetamido]4,7-bis(dimethylamino)-1,4,4a,5,5a,6,11,12a-octahydro-3,10,12,12a-tetrahydroxy-1,11dioxo-2-naphthacenecarboxamide]
